Assay results from US12486302B2, “Somatostatin receptor antagonist compounds and methods of using the same” (CDRD VENTURES INC., priority 2016, dated 2025).
pIC50: −log10 of the molar value. *1 amine or outer side, *2 acyl side, *3 side chain or, on linkers, in order; H or OH if unused. Where a SMILES comes first, the peptide text is derived from it. Bridges are numbered along the chain shown (N, C = ends). Side-chain parts run from the residue outwards. [ ]: non-standard residue; d: D form. The star is where a group is joined. X1 = O=C([C@@H](Cc1ccc(NS(=O)(=O)c2ccccc2)cc1)N[*:1])[*:2]; dPhe(4-CH2NHCONH2) = NC(=O)NCc1ccc(C[C@@H](N)C(=O)O)cc1; X2 = CCCCCNc1ccc(C[C@@H](N[*:1])C(=O)[*:2])cc1; dPhe(4-CH2NH2) = NCc1ccc(C[C@@H](N)C(=O)O)cc1; dPhe(4-NH2) = Nc1ccc(C[C@@H](N)C(=O)O)cc1; Phe(4-Cl) = N[C@@H](Cc1ccc(Cl)cc1)C(=O)O; d(hCit) = NC(=O)NCCCC[C@@H](N)C(=O)O; dCit = NC(=O)NCCC[C@@H](N)C(=O)O; Cit = NC(=O)NCCC[C@H](N)C(=O)O; Nicotinoyl = O=C(c1cccnc1)*; CO = O=C([*:1])[*:2]; NHPh = c1ccc(N*)cc1

Experiments:
Type in all cases: cell-based
Details in all cases: agonist challenge at EC80
SSTR1 = SSTR1 (Homo sapiens, UniProt P30872); experiment: PathHunter β-Arrestin assay, antagonist mode, SSTR1
Experimental: (§1) The PathHunter® β-Arrestin assay monitors the activation of a GPCR in a homogenous, non-imaging assay format using a technology developed by DiscoveRx called Enzyme Fragment Complementation (EFC) with β-galactosidase (β-Gal) as the functional reporter. […] EA is fused to β-Arrestin and […] is fused to the GPCR of interest. When the GPCR is activated and β-Arrestin is recruited to the receptor, ED and EA complementation occurs, restoring β-Gal activity which is measured using chemiluminescent PathHunter® Detection Reagents. For antagonist determination, cells were pre-incubated with the compounds followed by agonist challenge at the EC80 concentration. Data was normalized to the maximal and minimal response observed in the presence of EC80 ligand and vehicle. Compound activity was analyzed using CBIS data analysis suite ChemInnovation, CA). Percentage inhibition was calculated using the following formula: % Inhibition=100%×(1−(mean signal of test sample-mean signal of vehicle control)/(mean signal of EC80 control-mean signal of vehicle control)). Percentage inhibition was calculated at 10 concentrations in steps on a Log 3 scale ranging from […] to 5e-5 μM. The results were plotted for IC50 calculation.

[1] = molecular target: somatostatin type 2 (SSTR2) receptors (Homo sapiens, UniProt P30874); experiment: PathHunter β-Arrestin assay, antagonist mode, SSTR2
Summary of the method: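 Cells co-expressing PK-tagged human receptor and EA-β-Arrestin were pre-incubated with compound, then challenged with agonist at EC80. β-Gal complementation read by chemiluminescence; % inhibition normalized to EC80 and vehicle controls at 10 concentrations (log 3 steps from 1 μM down to 5e-5 μM), fitted for IC50.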

SSTR3 = SSTR3 (Homo sapiens, UniProt P32745); experiment: PathHunter β-Arrestin assay, antagonist mode, SSTR3
Experimental: as §1

SSTR4 = SSTR4 (Homo sapiens, UniProt P31391); experiment: PathHunter β-Arrestin assay, antagonist mode, SSTR4
Experimental: as §1

SSTR5 = SSTR5 (Homo sapiens, UniProt P35346); experiment: PathHunter β-Arrestin assay, antagonist mode, SSTR5
Experimental: as §1

Sequence of somatostatin type 2 (SSTR2) receptors (P30874 whole entry): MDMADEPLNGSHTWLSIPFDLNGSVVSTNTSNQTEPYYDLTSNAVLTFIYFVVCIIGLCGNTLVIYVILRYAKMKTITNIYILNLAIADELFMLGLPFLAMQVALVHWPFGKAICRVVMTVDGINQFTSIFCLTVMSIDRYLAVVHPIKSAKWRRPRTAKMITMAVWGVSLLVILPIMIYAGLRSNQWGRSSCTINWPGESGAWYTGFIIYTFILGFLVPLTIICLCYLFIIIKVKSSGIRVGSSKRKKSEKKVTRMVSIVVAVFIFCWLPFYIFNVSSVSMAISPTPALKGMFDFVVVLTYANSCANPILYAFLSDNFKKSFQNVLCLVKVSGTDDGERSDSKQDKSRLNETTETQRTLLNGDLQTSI
Sequence of SSTR4 (P31391 whole entry): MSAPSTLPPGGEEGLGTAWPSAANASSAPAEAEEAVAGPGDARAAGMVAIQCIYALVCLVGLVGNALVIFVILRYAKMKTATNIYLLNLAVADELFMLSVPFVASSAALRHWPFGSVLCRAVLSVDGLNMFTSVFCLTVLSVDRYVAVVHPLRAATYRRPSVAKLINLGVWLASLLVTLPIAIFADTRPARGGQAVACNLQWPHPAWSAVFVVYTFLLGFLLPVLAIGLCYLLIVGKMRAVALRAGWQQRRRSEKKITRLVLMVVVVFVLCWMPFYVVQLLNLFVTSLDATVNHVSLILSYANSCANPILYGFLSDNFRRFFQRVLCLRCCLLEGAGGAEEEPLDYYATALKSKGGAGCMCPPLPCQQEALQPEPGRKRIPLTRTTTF
Sequence of SSTR3 (P32745 whole entry): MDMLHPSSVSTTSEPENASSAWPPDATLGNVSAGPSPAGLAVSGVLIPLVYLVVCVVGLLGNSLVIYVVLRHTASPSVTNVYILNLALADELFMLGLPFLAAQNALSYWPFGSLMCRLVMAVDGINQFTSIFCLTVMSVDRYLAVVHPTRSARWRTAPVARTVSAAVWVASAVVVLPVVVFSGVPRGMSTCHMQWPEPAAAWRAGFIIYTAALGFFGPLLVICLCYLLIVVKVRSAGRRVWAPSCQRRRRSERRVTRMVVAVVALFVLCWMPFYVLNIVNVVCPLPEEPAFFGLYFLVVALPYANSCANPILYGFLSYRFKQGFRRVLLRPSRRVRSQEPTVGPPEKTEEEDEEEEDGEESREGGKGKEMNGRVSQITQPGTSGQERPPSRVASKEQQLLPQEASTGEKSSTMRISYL
Sequence of SSTR1 (P30872 whole entry, the tested form may be a part): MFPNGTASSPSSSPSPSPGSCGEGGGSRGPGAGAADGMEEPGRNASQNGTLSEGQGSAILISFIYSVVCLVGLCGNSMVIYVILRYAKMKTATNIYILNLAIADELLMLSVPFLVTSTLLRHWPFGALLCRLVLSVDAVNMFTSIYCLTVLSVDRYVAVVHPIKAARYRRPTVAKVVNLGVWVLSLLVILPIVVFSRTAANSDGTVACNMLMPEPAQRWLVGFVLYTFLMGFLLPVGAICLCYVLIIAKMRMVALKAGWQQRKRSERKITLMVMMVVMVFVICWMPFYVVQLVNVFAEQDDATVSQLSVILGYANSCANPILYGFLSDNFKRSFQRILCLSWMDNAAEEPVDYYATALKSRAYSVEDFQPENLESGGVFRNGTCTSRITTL
Sequence of SSTR5 (P35346 whole entry): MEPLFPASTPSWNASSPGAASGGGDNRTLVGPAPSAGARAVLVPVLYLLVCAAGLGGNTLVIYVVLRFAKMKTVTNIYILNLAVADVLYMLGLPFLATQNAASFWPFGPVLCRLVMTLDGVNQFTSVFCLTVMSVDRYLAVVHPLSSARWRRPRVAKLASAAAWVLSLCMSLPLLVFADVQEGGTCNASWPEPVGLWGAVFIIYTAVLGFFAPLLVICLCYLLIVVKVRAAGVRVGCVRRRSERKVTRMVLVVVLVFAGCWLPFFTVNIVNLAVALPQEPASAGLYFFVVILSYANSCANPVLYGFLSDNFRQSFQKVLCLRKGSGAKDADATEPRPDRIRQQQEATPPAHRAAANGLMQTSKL

pIC50 (SSTR1)	pIC50 [1]	pIC50 (SSTR3)	pIC50 (SSTR4)	pIC50 (SSTR5)	Compound
< 6.00	7.77	< 6.00	< 6.00	< 6.00	CCCCCNc1ccc(C[C@H]2NC(=O)[C@H](Cc3ccc(O)cc3)NC(=O)[C@H](NC(=O)[C@@H](N)Cc3ccc(Cl)cc3)CSSC[C@@H](C(=O)N[C@H](Cc3ccc(O)cc3)C(N)=O)NC(=O)[C@H]([C@@H](C)O)NC(=O)[C@H](CCCCN)NC2=O)cc1 [Compound 12, H-Cpa-cyclo[D-Cys-Tyr-D-Phe(4-n-pentylamino)-Lys-Thr-Cys]-D-Tyr-NH2] (H-[Phe(4-Cl)][dC]Y[X2]KTC[dY]-NH2; disulfide 2-7)
–	6.74	< 6.00	–	–	C[C@@H](O)[C@@H]1NC(=O)[C@H](CCCCN)NC(=O)[C@@H](CCCCNC(N)=O)NC(=O)[C@H](Cc2ccc(O)cc2)NC(=O)[C@H](NC(=O)[C@@H](N)Cc2ccc(Cl)cc2)CSSC[C@@H](C(=O)N[C@H](Cc2ccc(O)cc2)C(N)=O)NC1=O [Compound 2, H-Cpa-cyclo[DCys- Tyr-DHoCit-Lys- Thr-Cys]- DTyr-NH2] (H-[Phe(4-Cl)][dC]Y[d(hCit)]KTC[dY]-NH2; disulfide 2-7)
< 6.00	7.68	< 6.00	< 6.00	< 6.00	C[C@@H](O)[C@@H]1NC(=O)[C@H](CCCCN)NC(=O)[C@@H](Cc2ccc(NS(=O)(=O)c3ccccc3)cc2)NC(=O)[C@H](Cc2ccc(O)cc2)NC(=O)[C@H](NC(=O)[C@@H](N)Cc2ccc(Cl)cc2)CSSC[C@@H](C(=O)N[C@H](Cc2ccc(O)cc2)C(N)=O)NC1=O [Compound 14, H-Cpa-cyclo[DCys- Tyr-D-4- (benzenesulfonyl) Aph-Lys-Thr- Cys]-DTyr-NH2] (H-[Phe(4-Cl)][dC]Y[X1]KTC[dY]-NH2; disulfide 2-7)
–	< 6.00	< 6.00	–	–	C[C@@H](O)[C@@H]1NC(=O)[C@H](CCCCN)NC(=O)[C@@H](Cc2ccc(NC(=O)[C@@H](N)CCCCN)cc2)NC(=O)[C@H](Cc2ccc(O)cc2)NC(=O)[C@H](NC(=O)[C@@H](N)Cc2ccc(Cl)cc2)CSSC[C@@H](C(=O)N[C@H](Cc2ccc(O)cc2)C(N)=O)NC1=O [Compound 17, H-Cpa-cyclo[DCys- Tyr-D-4-(Lys) Aph-Lys-Thr- Cys]-DTyr-NH2] (H-[Phe(4-Cl)][dC]Y[dPhe(4-NH2)](Lys)KTC[dY]-NH2; disulfide 2-7)
< 6.00	7.51	< 6.00	< 6.00	< 6.00	C[C@@H](O)[C@@H]1NC(=O)[C@H](CCCCN)NC(=O)[C@@H](Cc2ccc(CNC(N)=O)cc2)NC(=O)[C@H](Cc2ccc(O)cc2)NC(=O)[C@H](NC(=O)[C@@H](N)Cc2ccc(Cl)cc2)CSSC[C@@H](C(=O)N[C@H](Cc2ccc(O)cc2)C(N)=O)NC1=O [Compound 7, H-Cpa-cyclo[DCys- Tyr-D-(4- ureidomethyl) Phe-Lys- Thr-Cys]-DTyr-NH2] (H-[Phe(4-Cl)][dC]Y[dPhe(4-CH2NHCONH2)]KTC[dY]-NH2; disulfide 2-7)
–	6.98	< 6.00	–	–	CC(=O)NCC(=O)Nc1ccc(C[C@H]2NC(=O)[C@H](Cc3ccc(O)cc3)NC(=O)[C@H](NC(=O)[C@@H](N)Cc3ccc(Cl)cc3)CSSC[C@@H](C(=O)N[C@H](Cc3ccc(O)cc3)C(N)=O)NC(=O)[C@H]([C@@H](C)O)NC(=O)[C@H](CCCCN)NC2=O)cc1 [Compound 9, H-Cpa-cyclo[DCys- Tyr-D-4-(Gly- Ac)Aph- Lys-Thr-Cys]- DTyr-NH2] (H-[Phe(4-Cl)][dC]Y[dPhe(4-NH2)]([Gly-Ac])KTC[dY]-NH2; disulfide 2-7)

The remaining lines, values behind:

Compound	pIC50 (SSTR1)	pIC50 [1]	pIC50 (SSTR3)	pIC50 (SSTR4)	pIC50 (SSTR5)
C[C@@H](O)[C@@H]1NC(=O)[C@H](CCCCN)NC(=O)[C@@H](Cc2ccc(NC(=O)[C@@H](N)CC(=O)O)cc2)NC(=O)[C@H](Cc2ccc(O)cc2)NC(=O)[C@H](NC(=O)[C@@H](N)Cc2ccc(Cl)cc2)CSSC[C@@H](C(=O)N[C@H](Cc2ccc(O)cc2)C(N)=O)NC1=O [Compound 18, H-Cpa-cyclo[DCys- Tyr-D-4-(Asp) Aph-Lys-Thr- Cys]-DTyr-NH2] (H-[Phe(4-Cl)][dC]Y[dPhe(4-NH2)](Asp)KTC[dY]-NH2; disulfide 2-7)	–	< 6.00	< 6.00	–	–
C[C@@H](O)[C@@H]1NC(=O)[C@H](CCCCN)NC(=O)[C@@H](CCCCNC(=O)c2cccnc2)NC(=O)[C@H](Cc2ccc(O)cc2)NC(=O)[C@H](NC(=O)[C@@H](N)Cc2ccc(Cl)cc2)CSSC[C@@H](C(=O)N[C@H](Cc2ccc(O)cc2)C(N)=O)NC1=O [Compound 3, H-Cpa-cyclo[DCys- Tyr-D-(N^ϵ- nicotinoyl)Lys-Lys- Thr-Cys]-DTyr-NH2] (H-[Phe(4-Cl)][dC]Y[dK](Nicotinoyl)KTC[dY]-NH2; disulfide 2-7)	–	6.60	< 6.00	–	–
C[C@@H](O)[C@@H]1NC(=O)[C@H](CCCCN)NC(=O)[C@@H](Cc2ccc(CN)cc2)NC(=O)[C@H](Cc2ccc(O)cc2)NC(=O)[C@H](NC(=O)[C@@H](N)Cc2ccc(Cl)cc2)CSSC[C@@H](C(=O)N[C@H](Cc2ccc(O)cc2)C(N)=O)NC1=O [Compound 5, H-Cpa-cyclo[DCys- Tyr-D-(4-aminomethyl)Phe- Lys-Thr-Cys]- DTyr-NH2] (H-[Phe(4-Cl)][dC]Y[dPhe(4-CH2NH2)]KTC[dY]-NH2; disulfide 2-7)	–	6.67	< 6.00	–	–
C[C@@H](O)[C@@H]1NC(=O)[C@H](CCCCN)NC(=O)[C@@H](Cc2ccc(NC(=O)[C@@H](N)CCCNC(N)=O)cc2)NC(=O)[C@H](Cc2ccc(O)cc2)NC(=O)[C@H](NC(=O)[C@@H](N)Cc2ccc(Cl)cc2)CSSC[C@@H](C(=O)N[C@H](Cc2ccc(O)cc2)C(N)=O)NC1=O [Compound 22, H-Cpa-cyclo[DCys- Tyr-D-4-(Cit)Aph- Lys-Thr-Cys]- DTyr-NH2] (H-[Phe(4-Cl)][dC]Y[dPhe(4-NH2)](Cit)KTC[dY]-NH2; disulfide 2-7)	–	6.38	< 6.00	–	–
C[C@@H](O)[C@@H]1NC(=O)[C@H](CCCCN)NC(=O)[C@@H](Cc2ccc(NC(=O)CN)cc2)NC(=O)[C@H](Cc2ccc(O)cc2)NC(=O)[C@H](NC(=O)[C@@H](N)Cc2ccc(Cl)cc2)CSSC[C@@H](C(=O)N[C@H](Cc2ccc(O)cc2)C(N)=O)NC1=O [Compound 8, H-Cpa-cyclo[DCys- Tyr-D-4-(Gly) Aph-Lys- Thr-Cys]-DTyr-NH2] (H-[Phe(4-Cl)][dC]Y[dPhe(4-NH2)](Gly)KTC[dY]-NH2; disulfide 2-7)	–	7.08	< 6.00	–	–
C[C@@H](O)[C@@H]1NC(=O)[C@H](CCCCN)NC(=O)[C@@H](Cc2ccc(NC(=O)Nc3ccccc3)cc2)NC(=O)[C@H](Cc2ccc(O)cc2)NC(=O)[C@H](NC(=O)[C@@H](N)Cc2ccc(Cl)cc2)CSSC[C@@H](C(=O)N[C@H](Cc2ccc(O)cc2)C(N)=O)NC1=O [Compound 15, H-Cpa-cyclo[D-Cys-Tyr-D-Phe(4-phenylureido)-Lys-Thr-Cys]-D-Tyr-NH2] (H-[Phe(4-Cl)][dC]Y[dPhe(4-NH2)]([CO-NHPh])KTC[dY]-NH2; disulfide 2-7)	< 6.00	9.00	< 6.00	< 6.00	< 6.00
C[C@@H](O)[C@@H]1NC(=O)[C@H](CCCCN)NC(=O)[C@@H](CCCNC(N)=O)NC(=O)[C@H](Cc2ccc(O)cc2)NC(=O)[C@H](NC(=O)[C@@H](N)Cc2ccc(Cl)cc2)CSSC[C@@H](C(=O)N[C@H](Cc2ccc(O)cc2)C(N)=O)NC1=O [Compound 1, H-Cpa-cyclo[D-Cys-Tyr-D-Cit-Lys-Thr-Cys]-D-Tyr-NH2] (H-[Phe(4-Cl)][dC]Y[dCit]KTC[dY]-NH2; disulfide 2-7)	< 6.00	7.47	< 6.00	< 6.00	< 6.00
